Source: PubChem BioAssay (NCI)
“And” between values parts separate entries of the source, which are not always exact repeats. Equal values may be shown once.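 Cultured in 96-well plates, cells were exposed to test compound for 48 hours across five concentrations. GI50 = concentration required for 50% inhibition of growth. TGI marks complete inhibition of growth.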

Legend:
Assay in all cases: NCI-60 cell line screen, 48 h
BT-549 breast = tested on: BT-549 breast
COLO 205 colon = tested on: COLO 205 colon
DU-145 prostate = tested on: DU-145 prostate
MCF7 breast = tested on: MCF7 breast
NCI-H460 lung = tested on: NCI-H460 lung
OVCAR-3 ovarian = tested on: OVCAR-3 ovarian
OVCAR-4 ovarian = tested on: OVCAR-4 ovarian
SK-MEL-2 melanoma = tested on: SK-MEL-2 melanoma
T-47D breast = tested on: T-47D breast
TK-10 renal = tested on: TK-10 renal

Structure (SMILES)	GI50 (BT-549 breast)	TGI (BT-549 breast)	GI50 (COLO 205 colon)	TGI (COLO 205 colon)	GI50 (DU-145 prostate)	TGI (DU-145 prostate)	GI50 (MCF7 breast)	TGI (MCF7 breast)	GI50 (NCI-H460 lung)	TGI (NCI-H460 lung)	GI50 (OVCAR-3 ovarian)	TGI (OVCAR-3 ovarian)	GI50 (OVCAR-4 ovarian)	TGI (OVCAR-4 ovarian) [µM]	GI50 (SK-MEL-2 melanoma)	TGI (SK-MEL-2 melanoma)	GI50 (T-47D breast) [µM]	TGI (T-47D breast)	GI50 (TK-10 renal) [µM]	TGI (TK-10 renal)
O=C1/C(=C/c2ccc(Cl)cc2)CN(Cc2cn(CCNc3ccnc4cc(Cl)ccc34)nn2)C/C1=C\c1ccc(Cl)cc1	0.488 µM	1.44 µM	0.354 µM	1.07 µM	0.426 µM	1.38 µM	0.376 µM	1.37 µM	0.247 µM	0.602 µM	0.311 µM	0.915 µM	0.353 µM	1.81	1.88 µM	3.4 µM	0.946	3.62 µM	0.483	1.6 µM
Oc1ccccc1Nc1nc2ccccc2c2occc12	7.59 µM	20.7 µM	13.3 µM	26 µM	9.66 µM	21.4 µM	25.2 µM	51.8 µM	14.1 µM	27.6 µM	2.48 µM	16.3 µM	10.8 µM	31.4	14.1 µM	31 µM	10.1	24.1 µM	1.9	6.65 µM
Nc1nc(Cl)c(N=Nc2ccc(Cl)cc2)c(NCC2(CO)CC(OCc3ccccc3)C2)n1 (stereo not drawn)	4.98 µM and 45.7 µM and 8.82 µM	46 µM and > 100 µM and 23.9 µM	27.9 µM and 33.7 µM and 6.17 µM	> 100 µM and 25.6 µM	6.16 µM and 14.6 µM and 4.62 µM	92.2 µM and > 100 µM and 26.5 µM	3.9 µM and 31.3 µM and 7.84 µM	14.2 µM and > 100 µM and 22.6 µM	7.43 µM and 29.4 µM and 3.85 µM	86.1 µM and > 100 µM and 17.7 µM	5.88 µM and 19.2 µM and 6.07 µM	45 µM and > 100 µM and 21.5 µM	2.25 µM and 15.9 µM and 3.65 µM	–	17.3 µM and > 31.3 µM and 13.6 µM	61.4 µM and > 100 µM and 28 µM	8.73	73.1 µM and > 100 µM and > 77.2 µM	–	46.9 µM and > 100 µM and 24.3 µM
Cc1[nH]n(-c2ccc(S(=O)(=O)O)cc2)c(=O)c1N=Nc1ccccc1	–	> 100 µM	–	> 100 µM	–	> 100 µM	–	> 100 µM	–	> 100 µM	–	> 100 µM	–	> 100	–	> 100 µM	–	> 100 µM	–	> 100 µM
C/C1=C\CC[C@@]2(C)O[C@@H]2C[C@@H]2[C@H](C/C(C)=C/CC1)OC(=O)C21CCN=N1 (stereo partly drawn)	> 100 µM	> 100 µM	> 100 µM	> 100 µM	> 100 µM	> 100 µM	> 100 µM	> 100 µM	> 100 µM	75 µM and > 100 µM	> 100 µM	> 100 µM	–	75	> 100 µM	> 100 µM	–	> 100 µM	> 100	> 100 µM
N#Cc1c(-c2ccc(Cl)cc2)c(-c2ccc(Cl)cc2)nn(CCOC(=O)CCC(=O)O)c1=O	–	> 100 µM	–	2.57 µM	–	6.86 µM	–	> 62.3 µM	–	32.5 µM	–	0.853 µM	–	> 91.6	–	28.2 µM	–	> 100 µM	–	> 100 µM
CCN(CC)CCCNc1nc2ccccc2c2c(=O)c3cc(Cl)ccc3sc12	15.8 µM	30.4 µM	2.33 µM	5.58 µM	2.01 µM	4.13 µM	1.32 µM	2.91 µM	1.7 µM	3.36 µM	1.92 µM	4.15 µM	4.68 µM	22.7	10.4 µM	27.5 µM	3.85	27.7 µM	2.15	3.97 µM
COc1cc(/C=C/C(=O)C(C(=O)/C=C/c2ccc(OC(=O)CCNc3nnc(C)s3)c(OC)c2)C(=O)CCNc2nnc(C)s2)ccc1OC(=O)CCNc1nnc(C)s1	2.36 µM	5.77 µM	2.57 µM	6.94 µM	2.27 µM	5.61 µM	2.16 µM	12.6 µM	2.2 µM	4.7 µM	2.4 µM	6.95 µM	4.76 µM	> 61.5	2.85 µM	12.5 µM	4.14	> 47.5 µM	4.03	13.7 µM
O=c1oc2ccc(F)cc2c(=O)n1-c1ccc(Cl)cc1F	0.488 µM	2.43 µM	2.14 µM	4.87 µM	1.1 µM	22 µM	1.95 µM	> 29 µM	0.619 µM	12.2 µM	0.55 µM	12.5 µM	0.737 µM	7.68	0.42 µM	2.53 µM	0.661	5.46 µM	3.73	12.2 µM
CO/N=C(\COc1ccc2c(c1)oc(=O)c1cc(OC)ccc12)c1ccc(F)cc1	23.4 µM	55.2 µM	59.6 µM	> 100 µM	22.8 µM	62.2 µM	34.7 µM	> 100 µM	23.8 µM	> 100 µM	16.7 µM	34.2 µM	21.2 µM	58.3	23.1 µM	72.8 µM	25	90.3 µM	14.7	29.5 µM
Oc1ccc2ccccc2c1C(c1ccc(Cl)cc1)c1c(O)ccc2ccccc12	–	14.1 µM	–	4.49 µM	–	12.4 µM	–	11.5 µM	–	11.3 µM	–	9.06 µM	–	11.2	–	6.71 µM	–	12.3 µM	–	11.1 µM
O=C(Nc1cccc([N+](=O)[O-])c1)c1ccc2ccccc2c1O	1.75 µM	5.53 µM	15.4 µM	> 57.5 µM	7.58 µM	> 100 µM	2.88 µM	> 43.2 µM	3.69 µM	> 100 µM	2.61 µM	8.83 µM	4.95 µM	> 100	3.18 µM	16.1 µM	2.64	> 30.4 µM	4.59	> 47.4 µM
COc1ccc(Cn2cc3c(c2-c2ccc(O)cc2)CCc2cnoc2-3)cc1	10 µM	26.7 µM	0.577 µM	2.01 µM	0.365 µM	5.14 µM	0.333 µM	15.5 µM	0.321 µM	4.45 µM	0.221 µM	0.557 µM	1.76 µM	19.6	0.379 µM	20.2 µM	0.377	23.7 µM	0.603	24.4 µM
O=C(Nc1cccnc1)c1cccc([N+](=O)[O-])c1	> 100 µM	> 100 µM	> 100 µM	> 100 µM	> 100 µM	> 100 µM	> 100 µM	> 100 µM	> 100 µM	> 100 µM	> 100 µM	> 100 µM	> 100 µM	> 100	> 100 µM	> 100 µM	> 100	> 100 µM	> 100	> 100 µM
CC(=O)Nc1ccc2c(c1)C(=O)c1cccc(F)c1-2	–	> 100 µM	–	> 100 µM	–	> 100 µM	–	> 63.9 µM	–	> 100 µM	–	> 100 µM	–	> 100	–	> 100 µM	–	> 100 µM	–	> 100 µM
O=c1[nH]ccc2nc(-c3ccc(CN4CCC(c5nc(-c6ccccn6)n[nH]5)CC4)cc3)c(-c3ccccc3)cc12	0.711 µM	30 µM	1.54 µM	> 100 µM	22.3 µM	> 100 µM	0.282 µM	33.2 µM	1.15 µM	> 100 µM	0.904 µM	> 66.3 µM	> 80.7 µM	> 100	14.7 µM	38 µM	–	0.0729 µM	3.37	30.4 µM
O=C1Nc2ccccc2/C1=C/c1ccccc1	–	31.2 µM	–	30.9 µM	–	27.4 µM	–	23.7 µM	–	38.5 µM	–	33.7 µM	–	83	–	28.5 µM	–	41.9 µM	–	45.1 µM
CC(C)(C)c1cn2cccc(C(=O)N3CCN(CC(=O)Nc4ccc(Cl)cc4C(=O)c4ccccc4Cl)CC3)c2n1	3.8 µM	19.7 µM	6.49 µM	43.6 µM	11.7 µM	27.5 µM	3.94 µM	20.8 µM	5.79 µM	23 µM	3.71 µM	15.5 µM	7.9 µM	> 100	5 µM	33.6 µM	5.33	> 100 µM	16	> 100 µM
CC1CC(C)/C(=N/NC(N)=O)C(C(O)CC2CCC(=O)NC2=O)C1 (stereo not drawn)	7.08 µM	> 100 µM	3.7 µM	51.5 µM	3.78 µM	52.6 µM	3.92 µM	> 100 µM	4 µM	> 100 µM	5.54 µM	48.1 µM	5.64 µM	> 100	2.2 µM	12.3 µM	4.41	> 100 µM	1.64	10.2 µM
COc1ccc(/C(=N\O)c2cc(OC)c(OC)c(OC)c2)c(OC)c1N	3.86 µM	> 100 µM	2.23 µM	6.5 µM	4.02 µM	> 100 µM	2.46 µM	> 100 µM	3.59 µM	> 100 µM	2.53 µM	7.8 µM	12.4 µM	> 100	7.48 µM	> 100 µM	> 100	> 100 µM	> 100	> 100 µM
CC1(C)N=C(N)N=C(N)N1c1ccc(OCC(=O)N2CCOCC2)c(Cl)c1	14.8 µM	> 100 µM	8.8 µM	> 100 µM	0.994 µM	> 100 µM	1.36 µM	> 100 µM	0.362 µM	> 100 µM	5.63 µM	> 100 µM	> 100 µM	> 100	> 100 µM	> 100 µM	> 100	> 100 µM	> 100	> 100 µM
Cn1ccnc1C(=O)/C=C/c1ccc(C(=O)Nc2ccccc2O)cc1	1.8 µM	5.05 µM	2.51 µM	5.15 µM	1.95 µM	5.23 µM	1.77 µM	6.51 µM	1.67 µM	5.6 µM	2.32 µM	6.37 µM	2.5 µM	12.5	5.9 µM	21.8 µM	2.68	10.8 µM	3.2	12.7 µM
COc1cc(C(=O)N2CCN(c3ccccc3OC)CC2)c(N)cc1OCc1ccccc1	27.6 µM	66.8 µM	59.4 µM	> 100 µM	42 µM	> 100 µM	29.3 µM	> 100 µM	33.1 µM	> 100 µM	22.1 µM	58.8 µM	32.2 µM	> 100	28.2 µM	66.8 µM	26.2	99.5 µM	31.9	73.2 µM
COc1cc2c(cc1OCCCCCn1c(-c3ccco3)nc3ccccc31)N=C[C@@H]1CCCN1C2=O	< 0.01 µM	< 0.0209 µM	< 0.01 µM	< 0.01 µM	< 0.0152 µM	–	< 0.01 µM	19 µM	< 0.01 µM	14.3 µM	< 0.01 µM	< 0.01 µM	< 0.014 µM	> 41.4	< 0.0147 µM	0.07 µM	< 0.01	–	0.0267	35.6 µM
Cc1cc(O)ccc1O	16.3 µM	> 100 µM	23.7 µM	47.6 µM	17.4 µM	31.6 µM	19 µM	69.8 µM	45.4 µM	> 100 µM	14.1 µM	27.9 µM	15.6 µM	29	> 100 µM	> 100 µM	18.2	60.8 µM	19.5	35 µM
COc1cc(-n2cc(-c3ccc(F)cc3)[nH]c2=S)cc(OC)c1OC	58 µM	> 100 µM	> 100 µM	> 100 µM	> 100 µM	> 100 µM	55.9 µM	> 100 µM	> 100 µM	> 100 µM	> 100 µM	> 100 µM	> 100 µM	> 100	> 100 µM	> 100 µM	72.4	> 100 µM	> 100	> 100 µM
NC(N)=N/N=C(/c1ccccc1)c1ccc(Cl)cc1	50.5 µM	> 100 µM	14.4 µM	> 100 µM	4.89 µM	24.8 µM	3.69 µM	> 100 µM	9.93 µM	44 µM	2.88 µM	12.1 µM	19 µM	> 100	> 100 µM	> 100 µM	> 100	> 100 µM	32	> 100 µM
